The values below come from US20170253607A1, “LONG-ACTING HIV PROTEASE INHIBITOR” (Shionogi & Co., Ltd., priority 2014, published 2017).

Structures are written as SMILES.

This test deals with HIV-1 PR (Human immunodeficiency virus type 1 group M subtype B, UniProt P04585). As to the kind of experiment: HIV-protease inhibitory activity assay (FRET peptide substrate). The class given is biochemical. The settings on record: Test Example 1. The gist of the method: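 Compounds were preincubated with HIV-1 PR (0.83 ng) at room temperature in pH 4.8 NaAc buffer (0.5 M NaCl, EDTA, DTT, Tween 20), then HiLyte Fluor 488/QXL 520 FRET peptide (2 μmol/L final) was added for 60 min. Fluorescence was read at 485/535 nm, and IC50 was fitted by four-parameter logistic regression.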
As a reminder, the IC50 is the concentration that inhibits the measured activity by half. `COc1ccc(S(=O)(=O)N(CC(C)C)CC(O)C(Cc2ccc(NCc3ccc(C(=O)N(C)C)cc3-c3sc4c(c3C(=O)O)CC(C)(C)CC4)cc2)NC(=O)OC2COC3(C)OCCC23)cc1` (stereo not drawn) [Compound I-417] displayed an IC50 of 1.64 nM.

In the case of `COc1ccc(S(=O)(=O)N(CC(C)C)CC(O)C(Cc2ccc(N(Cc3ccco3)Cc3ccccc3-c3sc4c(c3C(=O)O)CC(C)(C)CC4)cc2)NC(=O)OC2COC3(C)OCCC23)cc1` (stereo not drawn) [Compound I-420], the IC50 was 13.1 nM. Against the preceding molecule, the IC50 is about 8-fold higher. Molecule `COc1ccc(S(=O)(=O)N(CC(C)C)CC(O)C(Cc2ccc(N(CCc3ccccc3)Cc3ccccc3-c3sc4c(c3C(=O)O)CC(C)(C)CC4)cc2)NC(=O)OC2COC3(C)OCCC23)cc1` (stereo not drawn) [Compound I-421] displayed an IC50 of 14.7 nM. With `COc1ccc(S(=O)(=O)N(CC(C)C)CC(O)C(Cc2ccc(N(Cc3ccccc3-c3sc4c(c3C(=O)O)CC(C)(C)CC4)CC(C)C)cc2)NC(=O)OC2COC3(C)OCCC23)cc1` (stereo not drawn) [Compound I-422], the IC50 stood at 8.58 nM.

The molecule `COc1ccc(S(=O)(=O)N(CC(C)C)CC(O)C(Cc2ccc(N(Cc3cccnc3)Cc3ccccc3-c3sc4c(c3C(=O)O)CC(C)(C)CC4)cc2)NC(=O)OC2COC3(C)OCCC23)cc1` (stereo not drawn) [Compound I-423] showed a half-inhibitory concentration (IC50) of 2.8 nM. As to `COc1ccc(S(=O)(=O)N(CC(C)C)CC(O)C(Cc2ccc(N(Cc3ccoc3)Cc3ccccc3-c3sc4c(c3C(=O)O)CC(C)(C)CC4)cc2)NC(=O)OC2COC3(C)OCCC23)cc1` (stereo not drawn) [Compound I-424], the midpoint of inhibition, the IC50, lay at 5.41 nM. `COc1ccc(S(=O)(=O)N(CC(C)C)CC(O)C(Cc2ccc(N(Cc3ccncc3)Cc3ccccc3-c3sc4c(c3C(=O)O)CC(C)(C)CC4)cc2)NC(=O)OC2COC3(C)OCCC23)cc1` (stereo not drawn) [Compound I-425] displayed an IC50 of 2.65 nM.

In the case of `COc1ccc(S(=O)(=O)N(CC(C)C)CC(O)C(Cc2ccc(N(CCCc3ccccc3)Cc3ccccc3-c3sc4c(c3C(=O)O)CC(C)(C)CC4)cc2)NC(=O)OC2COC3(C)OCCC23)cc1` (stereo not drawn) [Compound I-426], the 50% inhibitory concentration (IC50) came out at 8.1 nM. This IC50 lies about 3.1-fold higher than the previous one. For the molecule `COc1ccc(S(=O)(=O)N(CC(C)C)CC(O)C(Cc2ccc(N(CCCC(F)(F)F)Cc3ccccc3-c3sc4c(c3C(=O)O)CC(C)(C)CC4)cc2)NC(=O)OC2COC3(C)OCCC23)cc1` (stereo not drawn) [Compound I-427], the IC50 is 10.4 nM. The IC50 values of the last two molecules are within 1.5-fold of each other.

As for `CCCCCCN(Cc1ccccc1-c1sc2c(c1C(=O)O)CC(C)(C)CC2)c1ccc(CC(NC(=O)OC2COC3(C)OCCC23)C(O)CN(CC(C)C)S(=O)(=O)c2ccc(OC)cc2)cc1` (stereo not drawn) [Compound I-428], 15.9 nM corresponded to half-maximal inhibition (IC50). In turn, `COc1ccc(S(=O)(=O)N(CC(C)C)CC(O)C(Cc2ccc(N(CCN3CCOCC3)Cc3ccccc3-c3sc4c(c3C(=O)O)CC(C)(C)CC4)cc2)NC(=O)OC2COC3(C)OCCC23)cc1` (stereo not drawn) [Compound I-429] returned an IC50 of 2.21 nM. The molecule `COc1ccc(S(=O)(=O)N(CC(C)C)CC(O)C(Cc2ccc(N(CCC(F)(F)F)Cc3ccccc3-c3sc4c(c3C(=O)O)CC(C)(C)CC4)cc2)NC(=O)OC2COC3(C)OCCC23)cc1` (stereo not drawn) [Compound I-430] displayed an IC50 of 17.5 nM. The molecule `COc1ccc(S(=O)(=O)N(CC(C)C)CC(O)C(Cc2ccc(N(Cc3nccs3)Cc3ccccc3-c3sc4c(c3C(=O)O)CC(C)(C)CC4)cc2)NC(=O)OC2COC3(C)OCCC23)cc1` (stereo not drawn) [Compound I-431] registered an IC50 of 3.72 nM. Against the preceding molecule, the IC50 is about 4.7-fold lower.

`COc1ccc(S(=O)(=O)N(CC(C)C)CC(O)C(Cc2ccc(N(CCCCc3ccccc3)Cc3ccccc3-c3sc4c(c3C(=O)O)CC(C)(C)CC4)cc2)NC(=O)OC2COC3(C)OCCC23)cc1` (stereo not drawn) [Compound I-432] displayed an IC50 of 8.42 nM. Molecule `COc1ccc(S(=O)(=O)N(CC(C)C)CC(O)C(Cc2ccc(Nc3ncc(-c4sc5c(c4C(=O)O)CC(C)(C)CC5)cn3)cc2)NC(=O)OC2COC3(C)OCCC23)cc1` (stereo not drawn) [Compound I-433] yielded a half-maximal inhibitory concentration (IC50) of 2.49 nM.

In turn, `COc1ccc(S(=O)(=O)N(CC(C)C)CC(O)C(Cc2ccc(NCc3ccc(C(=O)Nc4sc5c(c4C(=O)O)CC(C)(C)CC5)cc3)cc2)NC(=O)OC2COC3(C)OCCC23)cc1` (stereo not drawn) [Compound I-437] registered a half-maximal inhibitory concentration (IC50) of 4.42 nM.

`COc1ccc(S(=O)(=O)N(CC(C)C)CC(O)C(Cc2ccc(NCc3ccc(C(=O)Nc4sc5c(c4C(=O)O)CC(C)(C)CC5)o3)cc2)NC(=O)OC2COC3(C)OCCC23)cc1` (stereo not drawn) [Compound I-438] came in with a concentration for half-maximal inhibition (IC50) of 2.55 nM. In turn, `COc1ccc(S(=O)(=O)N(CC(C)C)CC(O)C(Cc2ccc(NCc3ccc(CCC(=O)Nc4sc5c(c4C(=O)O)CC(C)(C)CC5)cc3)cc2)NC(=O)OC2COC3(C)OCCC23)cc1` (stereo not drawn) [Compound I-439] yielded a concentration for half-maximal inhibition (IC50) of 3.45 nM. The molecule `COc1ccc(S(=O)(=O)N(CC(C)C)CC(O)C(Cc2ccc(NCc3ccc(C(=O)Nc4sc5c(c4C(=O)O)CC(C)(C)CC5)s3)cc2)NC(=O)OC2COC3(C)OCCC23)cc1` (stereo not drawn) [Compound I-441] returned a 50% inhibitory concentration (IC50) of 2.61 nM.

In the case of `COc1ccc(S(=O)(=O)N(CC(C)C)CC(O)C(Cc2ccc(NCc3cnn4ccc(C(=O)Nc5sc6c(c5C(=O)O)CC(C)(C)CC6)nc34)cc2)NC(=O)OC2COC3(C)OCCC23)cc1` (stereo not drawn) [Compound I-442], the IC50 amounted to 2.95 nM. The figure for `COc1ccc(S(=O)(=O)N(CC(C)C)CC(O)C(Cc2ccc(NCc3cncc(C(=O)Nc4sc5c(c4C(=O)O)CC(C)(C)CC5)c3)cc2)NC(=O)OC2COC3(C)OCCC23)cc1` (stereo not drawn) [Compound I-443] is 1.88 nM; for `COc1ccc(S(=O)(=O)N(CC(C)C)CC(O)C(Cc2ccc(NCc3ccc(C=CC(=O)Nc4sc5c(c4C(=O)O)CC(C)(C)CC5)cc3)cc2)NC(=O)OC2COC3(C)OCCC23)cc1` (stereo not drawn) [Compound I-444] it is 5.1 nM. Consider `COc1ccc(S(=O)(=O)N(CC(C)C)CC(O)C(Cc2ccc(NCc3cc(C(=O)Nc4sc5c(c4C(=O)O)CC(C)(C)CC5)n(C)c3)cc2)NC(=O)OC2COC3(C)OCCC23)cc1` (stereo not drawn) [Compound I-445], for which it took 2.78 nM to reach half-maximal inhibition (IC50). As to `COc1ccc(S(=O)(=O)N(CC(C)C)CC(O)C(Cc2ccc(NCc3cc(C(F)(F)F)ccc3-n3nc(C(=O)O)c4c3CCC(C)(C)C4)cc2)NC(=O)OC2COC3(C)OCCC23)cc1` (stereo not drawn) [Compound I-446], the IC50 is 2.12 nM.

Turning to `COc1ccc(S(=O)(=O)N(CC(C)C)CC(O)C(Cc2ccc(N(C)Cc3cc(C(F)(F)F)ccc3-n3nc(C(=O)O)c4c3CCC(C)(C)C4)cc2)NC(=O)OC2COC3(C)OCCC23)cc1` (stereo not drawn) [Compound I-447], the IC50 is 2.37 nM. In turn, `COc1ccc(S(=O)(=O)N(CC(C)C)CC(O)C(Cc2ccc(N(C)Cc3cc(C#N)ccc3-c3sc4c(c3C(=O)O)CC(C)(C)CC4)cc2)NC(=O)OC2COC3(C)OCCC23)cc1` (stereo not drawn) [Compound I-452] gave an IC50 of 2.6 nM.

For the molecule `COc1ccc(S(=O)(=O)N(CC(C)C)CC(O)C(Cc2ccc(N(Cc3ccccc3-c3sc4c(c3C(=O)O)CC(C)(C)CC4)CC3CCCC3)cc2)NC(=O)OC2COC3(C)OCCC23)cc1` (stereo not drawn) [Compound I-456], the IC50 came out at 13.6 nM. Compared with the last molecule, the IC50 is about 5.2-fold higher. In turn, `CCCCN(Cc1ccccc1-c1sc2c(c1C(=O)O)CC(C)(C)CC2)c1ccc(CC(NC(=O)OC2COC3(C)OCCC23)C(O)CN(CC(C)C)S(=O)(=O)c2ccc(OC)cc2)cc1` (stereo not drawn) [Compound I-457] showed a concentration for half-maximal inhibition (IC50) of 5.63 nM. The figure for `CCCCCCCCCN(Cc1ccccc1-c1sc2c(c1C(=O)O)CC(C)(C)CC2)c1ccc(CC(NC(=O)OC2COC3(C)OCCC23)C(O)CN(CC(C)C)S(=O)(=O)c2ccc(OC)cc2)cc1` (stereo not drawn) [Compound I-458] is 51 nM. Molecule `COc1ccc(S(=O)(=O)N(CC(C)C)CC(O)C(Cc2ccc(N(CCC(C)(C)C)Cc3ccccc3-c3sc4c(c3C(=O)O)CC(C)(C)CC4)cc2)NC(=O)OC2COC3(C)OCCC23)cc1` (stereo not drawn) [Compound I-459] showed an IC50 of 18.4 nM.
